{"source": "patent US20100190849A1", "about": "“Novel Clerodanes and Methods for Repelling Arthropods” (priority 2006, published 2010)", "key": {"[1]": {"tested_on": "Anopheles stephensi", "test": "K & D module mosquito anti-biting (repellent) bioassay", "assay_type": "in vivo", "details": "25 nmol compound/cm^2 cloth; for Proportion Not Biting: Exp. 7, 56 replicates; for repellent activity (in words): Experiment 7", "from_the_text": "Insects: Ae. aegypti(L.) (red eye Liverpool strain) and An. stephensi Liston used in the study were from colonies maintained at the Walter Reed Army Institute of Research, Silver Spring, Md. The insects were reared by feeding larvae ground tropical fish flakes (Tetramin Tropical Fish Flakes, Tetra Sales, Blacksburg, Va., www.tetra-fish.com)(Gerberg, E. j., et al., Manual for mosquito rearing and experimental techniques. Amer. Mosq. Control Assoc. Bull. No. 5 (revised), 1994, AMCA. inc., Lake Charles, La.). Adults were maintained in a photoperiod of 12:12 (L:D) h at 27° C. and 80% RH with cotton pads moistened with 10% aqueous sucrose solution. Mated females were 5-15 d old when they were used in bioassays. Ae. aegypti females had access only to water 24 h and neither food nor water for another 24 h before testing. An. stephensi females were provided with water alone 24 h before testing.\nMosquito Bioassay Methods: Experiment were conducted by using, a six-celled in vitro Klun & Debboun (K & D) module bioassay system developed by klun et al. (Klum J. A., et al., Journal of the American Mosquito Control Association. 21: 64-70 (2005)) for quantitative, evaluation of mosquito-repellent (anti-biting) properties of candidate repellent compounds for human use.\n(§1) Plant extracts, fractions, or isolated pure plant derived compounds in 95% ethanol solution were each randomly applied to six-4×5 cm areas of organdy cloth and positioned over the membrane-covered blood. A replicate consisted of six treatments: four test chemicals or extract fractions, 95% ethanol treated cloth as control and unfractionated plant extract or a standard repellent compound, (1S, 2′S)-2-methylpiperidinyl-3-cyclohexen-1-carboxamide (SS220) at 25 nmol/cm^2 cloth. The 25 nmol SS220/cm^2 cloth dose was used as a standard, because it was known from human volunteer and in vitro assays to consistently suppress mosquito biting by 80% or more compared to controls in replicated assays (Klun, J. A., et al., Journal of the American Mosquito Control Association, 21: 64-70 (2005)). […] Routinely, a six-celled K & D module containing five mosquitoes/cell was positioned over cloth treatments covering the six blood-membrane wells, and trap doors of the K&D modules were opened to expose the treatments to the sets of mosquitoes. After a 3 minute exposure, the number of mosquitoes biting through cloth treatments in each cell was recorded and mosquitoes were prodded back into the cells. In Experiment 8, we retained all mosquitoes in their respective K&D module cells, each fitted with a water-moist piece of cotton, and observed the mosquitoes for total mosquito toxic knockdown at 6 min, 1 hr, and 24 hr post-treatment exposure. Experiments were replicated 12, 18, 32, or 56 times. Thus, 60, 90, 160. or 280 mosquitoes were tested against each treatment depending on the experiment, and the proportion of mosquitoes not biting for each treatment was calculated. For each experiment, conducted in different time periods, logistic regression was used to make two sets of one degree-of-freedom contrasts (t-tests): treatments vs. control and treatments vs. SS220 for anti-biting activity within each experiment. The level of significance was set at P=0.05. In all, we conducted 8 biological experiments, and all experiments used Ae. aegypti as the test mosquito with exception of Experiment 7 which used An. stephensi.\nExperiments 6 and 7: These experiments compared the anti-biting activities of SS-220, and plant-isolated callicarpenal, humulene epoxide II, intermedeol and spathulenol at 25 nmol compound/cm^2 cloth versus control against Ae. aegypti and An. stephensi, respectively. Experiment 6 was replicated 32 times and 7 had 56 replicates"}, "[2]": {"tested_on": "Aedes aegypti", "test": "Total mosquito toxic knockdown after K & D module exposure (Experiment 8)", "assay_type": "in vivo", "details": "Exp. 8, 25 nmol/cm^2 cloth; for Total Knock down 6 min: dead mosquitoes 6 min post-treatment exposure; for Total knock down 1 hr: dead mosquitoes 1 hr post-treatment exposure; for Total knock down 24 hr: dead mosquitoes 24 hr post-treatment exposure", "from_the_text": "as §1\nExperiment 8: This experiment (12 replicates) compared the antibiting activities of a mixture (25 nmol/cm^2 cloth) of 11.5% callicarpenal, 47.1% intermedeol, and 41.4% spathulenol. The percentage composition of the mixture was a normalized percentage of active components in C. japonica essential oil based upon GC-MS analysis total ion Area % analysis based on largest peaks. Other treatments in the experiment were SS220, callicarpenal, intermedeol, and spathulenol each at 25 nmol/cm^2 cloth versus control. In addition to measurement of anti-biting activity, the number of dead mosquitoes observed at three time intervals were recorded for the six treatments."}, "[3]": {"tested_on": "S. invicta", "test": "Two-choice digging bioassay, head-to-head against octanoic acid", "assay_type": "in vivo, Solenopsis invicta", "details": "25.00 ppm; both S. invicta colonies; FIGS. 3 and 4", "description": "The repellency of the two terpenoids, callicarpenal and intermedeol, against workers of red imported fire ants, Solenopsis invicta Buren, black imported fire ants, Solenopsis rickeri Forel, and a hybrid of these two species was evaluated using multiple-choice digging bioassays (Tables 9 & 10). […] Callicarpenal and intermedeol were compared with octanoic acid, a known fire ant repellant, at the 25.00 ppm level using two-choice digging bioassays (FIGS. 3 and 4).\nHead-to-head comparison on repellency of callicarpenal and intermedeol against octanoic acid: The bioassay apparatus was similar as described above, except a smaller Petri dish (8.7×2.3 cm) was used and only two choices were presented: one was sand treated with callicarpenal or intermedeol and the other with octanoic acid. Two choices were opposite each other across the center of the Petri dish and each was 3.0 cm away from the center. All compounds were tested at a 25.00 ppm level. Sand preparation was similar as described above. Ants from the same colonies as above were used in this experiment. There were five replications for each pair of comparisons. A paired t-test (critical P-value=0.05) was used to compare the mean amount of sand removed between two tubes."}}, "note": "Marks after values point to notes of the source that are not given here."}
{"smiles": "CC1=CCC[C@@H]2[C@@](C)(CC=O)[C@H](C)CC[C@@]12C", "note": "[callicarpenal, 13,14,15,16-tetranorclerod-3-en-12-al]", "values": [{"measurement": "Proportion Not Biting", "setting": "[1]", "value": "0.75^c"}, {"measurement": "repellent activity (in words)", "setting": "[1]", "value": "as effective as SS220"}, {"measurement": "Total Knock down 6 min", "setting": "[2]", "value": 0}, {"measurement": "Total knock down 1 hr", "setting": "[2]", "value": 1}, {"measurement": "Total knock down 24 hr", "setting": "[2]", "value": 5}, {"measurement": "repellency compared with octanoic acid (in words)", "setting": "[3]", "value": "no significant difference"}]}
{"smiles": "C=C(C)C1CCC2(C)CCCC(C)(O)C2C1", "note": "[intermedeol, (4S,5S,7R,10S)-eudesm-11-en-4-ol]", "values": [{"measurement": "Proportion Not Biting", "setting": "[1]", "value": "0.72^c"}, {"measurement": "repellent activity (in words)", "setting": "[1]", "value": "as effective as SS220"}, {"measurement": "Total Knock down 6 min", "setting": "[2]", "value": 1}, {"measurement": "Total knock down 1 hr", "setting": "[2]", "value": 1}, {"measurement": "Total knock down 24 hr", "setting": "[2]", "value": 2}, {"measurement": "repellency compared with octanoic acid (in words)", "setting": "[3]", "value": "significantly greater repellency than octanoic acid"}]}
